Patent publication US20150343016A1, “CHEMICAL ENTITIES AND THERAPEUTIC USES THEREOF” (The Regents of the University of Colorado, a body corporate, priority 2010, published 2015)
Entries after “also recorded” stand apart in the source; their conditions may differ.

Tests used:
H157 cells = assay: Clonogenic assay, Bouvardin with IR, H157; type: cell-based, human
Experimental: To assess the effect of Bouvardin, another measure of cell survival, namely, clonogenic assays, was employed. […] For example, IC50 for IR at 0 and 10 nM of Bouvardin, extrapolated from the graph in FIG. 17A, are approximately 1.5 Gy and 1.0 Gy (dark and light dotted lines respectively).
In FIG. 17 (A) Clonogenic assays were used to confirm the effects of Bouvardin in combination with radiation in H157 cells. Cells were plated in 6 well plates at 1,000 cells per well. 24 hours later, various doses of (1 nM, 5 nM and 10 nM) of Bouvardin were added with media alone as a control. 24 hours after the addition of Bouvardin, the cells were irradiated at 0, 2, 4 and 6 Gy. Colonies were allowed to form for 2 weeks and then counted. The results are shown as a percentage of control (no drug, no IR). Error bar=±1SEM. (B) The effect of Bouvardin (Bvd) and radiation on H157 xenografts in athymic mice. Bouvardin treatment began when tumors had reached approximately 200 mm3. […]
The survival of cells treated with Bouvardin and IR was measured by performing standard clonogenic assays. […] The colonies were then stained with crystal violet (1% in methanol), rinsed 3× with water, and colonies with greater than 50 cells were counted using a dissection microscope. Fraction survival was calculated as a percentage of the control (no drug, no IR).

[1] = tested on: head and neck squamous cell carcinola line (UMSCC2B); assay: MTT assay, bouvardin with radiation, UMSCC2B; type: cell-based, human; details: over a wide range of concentrations
Experimental: MTT assays were used to test the effects of bouvardin alone and in combination with radiation on numerous cell lines. Bouvardin and radiation synergize in non-small cell lung cancer cell line (H157) and head and neck squamous cell carcinola line (UMSCC2B) over a wide range of concentrations between bouvardin and radiation. FIG. 8 depicts this synergy in these two cell lines. The efficiency of bouvardin in sensitizing cancer cells to radiation is measured in terms of Combination Index (CI) as determined by Calcusyn software. CI values are either above, below or equal to 1, indicating antagonizing, synergistic or additive effects respectively. “Gy” in FIG. 8 stands for “Gray,” a radiation unit.
The growth inhibitory effects of Bouvardin with ionizing radiation (IR) were evaluated using a modified tetrazolium salt (MTT) assay. In the MTT assay, 1,000 to 2,000 viable cells were plated in 100 uL of growth medium in 96-well plates (Corning, Ithaca, N.Y.). Following an overnight incubation, drug was added in varying concentrations and the plates were irradiated on the same day (co-treatment) or 24 hr later (pre-treatment) and incubated for 6 to 7 days. The tetrazolium salt was added at a concentration of 0.4 mg/mL to each well following the 6- to 7-day treatment. […] The absorbency of each well was measured using an automated plate reader (Molecular Devices, Sunnyvale, Calif.). […]

H157 tumor xenografts = H157 tumor xenografts in athymic mice, Bouvardin with radiation; type: in vivo
From the text: The effectiveness of Bouvardin, IR and the combination of the two was next assessed in H157 tumor xenografts (FIG. 17B). […] Similar results were obtained in a repeat experiment (not shown). […] Bouvardin enhances the effect of radiation in Drosophila mutant larvae, human cancer cells and tumor xenografts in mice. The choice of drug concentration would be critical.
In FIG. 17 (A) Clonogenic assays were used to confirm the effects of Bouvardin in combination with radiation in H157 cells. Cells were plated in 6 well plates at 1,000 cells per well. 24 hours later, various doses of (1 nM, 5 nM and 10 nM) of Bouvardin were added with media alone as a control. 24 hours after the addition of Bouvardin, the cells were irradiated at 0, 2, 4 and 6 Gy. Colonies were allowed to form for 2 weeks and then counted. The results are shown as a percentage of control (no drug, no IR). Error bar=±1SEM. (B) The effect of Bouvardin (Bvd) and radiation on H157 xenografts in athymic mice. Bouvardin treatment began when tumors had reached approximately 200 mm3. Bouvardin was administered intraperitonealy twice a week, and radiation was administered 24 hr after each drug administration Animals in control and drug-only groups had tumors that were too large and had to be sacrificed on day 26. Treatment continued for the other two groups for one more week. The difference in tumor volume between combination-treated group and radiation only group was statistically significant at day 30 (p=0.0387 on day 30; upaired two tailed t-test). The difference in tumor volume between combination-treated group and radiation only group remains on day 33 but is less significant (p=0.0967; upaired two tailed t-test). N=10 per group. The data points indicate mean tumor volumes ±1SEM.
Six to 8-week-old female nude athymic mice were purchased from Harlan Laboratories and housed in a pathogen-free facility approved by the American Association for the Accrediation of Laboratory Animal Care and met all current regulations and standards of the U.S. Department of Agriculture, the U.S. Department of Health and Human Services and the National Institutes of Health Animal procedures were carried out in accordance with a protocol approved by the Institutional Animal Care and Use Committee of the University of Colorado. Cancer cells were grown to 80% confluence and harvested by trypsinization. Trypsin was neutralized with complete medium containing FBS. […] Mice were treated for 3 weeks, and tumor growth was measured until volume exceeded 2 cm3, when animals were euthanized. Tumor volume was measured on Tuesdays and Fridays. Tumor volume was calculated using the formula V=a2×b/2, where a and b are the smallest and largest tumor diameters, respectively, as determined using calipers.

## COc1ccc(C[C@H]2C(=O)N[C@H](C)C(=O)N(C)[C@@H]3C(=O)N(C)[C@@H](Cc4ccc(O)c(c4)Oc4ccc(cc4)[C@H]3O)C(=O)N[C@@H](C)C(=O)N[C@H](C)C(=O)N2C)cc1 (stereo in doubt) [Bouvardin, bouvardin]
H157 cells
  effect on radiation-induced reduction of clonogenicity: increased the effect of radiation in reducing the clonogenicity
[1]
  interaction of Bouvardin with radiation: synergize
H157 tumor xenografts; 0.2 mg/kg + radiation 24 hr after each drug administration, p=0.0387 on day 30, p=0.0967 on day 33
  tumor control, drug with radiation versus radiation alone: improved control of tumor volume in a statistically significant manner; also recorded: enhanced the effect of IR
H157 tumor xenografts; 0.2 mg/kg intraperitonealy twice a week
  tumor control, drug alone: had little effect on its own
H157 tumor xenografts; 0.4 mg/kg
  tumor control, drug alone: shows tumor control; also recorded: had effect on its own
H157 tumor xenografts; 0.4 mg/kg + radiation
  tumor control, drug with radiation versus radiation alone: did not enhance the effect of radiation; also recorded: did not enhance the effect of IR
